{"source": "patent US20200093776A1", "about": "“MUCOSAL IMMUNOSTIMULATOR” (Yamada Bee Company, Inc., priority 2015, published 2020)", "key": {"Caco-2 cells [1]": {"tested_on": "Caco-2 cells", "experiment": "M-cell differentiation induction test, FACS analysis using GP2 as an indicator", "type": "cell-based, human", "conditions": "Caco-2 single-layer film, final concentration 100 μM, cultured 3 days; for expression of GP2 (FACS): vs DMSO control", "protocol": "(§1) As an in vitro M-cell model, Caco-2 cells derived from human intestinal epithelium cells were used. The Caco-2 cells were cultured in an EMEM medium (produced by Nissui Pharmaceutical Co., Ltd.) supplemented with 2% fetal calf serum (FCS, produced by CANSERA INTERNATIONAL), 2 mM glutamine (produced by Wako Pure Chemical Industries, Ltd.), and 0.1 mM nonessential amino acid (produced by Gibco) at 37° C. in the presence of 5% CO2. The cells were subcultured within a range of logarithmic growth (2.0×10^5 to 1.0×10^6 cells/mL). The cell concentration was determined by counting the number of living cells and the number of dead cells by the trypan blue staining method.\nThe induction of the differentiation of M cells by various fatty acids (10-hydroxydecanoic acid, (+/−)-3-hydroxydecanoic acid, (9R)-9,10-dihydroxydecanoic acid, and 10-hydroxy-2-(E)-decenoic acid) was analyzed by FACS using GP2 as an indicator. As the 10-hydroxydecanoic acid (10HDAA), one produced by SIGMA-ALDRICH was used; as the (+/−)-3-hydroxydecanoic acid (311DAA), one produced by SIGMA-ALDRICH was used; and as the 10-hydroxy-2-(E)-decenoic acid (10-HDA), one produced by Wako Pure Chemical Industries, Ltd. was used. The (9R)-9,10-dihydroxydecanoic acid (DDA-11) used was, synthesized based on the method described in Tetrahedron: Asymmetry, 2009, 20, pp. 457-460, by tosylating (4R)-4-(2-hydroxyethyl)-2,2-dimethyl-1,3-dioxolane, and extending the chain with 5-bromo-1-pentene by a Grignard reaction, followed by ozone degradation, Wittig reaction with diethylphosphonic acid ethyl ester, hydrogenation by a catalytic hydrogenation reaction, removal of acetonide by acetic acid treatment, and removal of the ethyl group by potassium hydroxide treatment.\nEach of the above fatty acids was prepared as a DMSO solution (10 mM). After the Caco-2 cells were seeded in a 6-well plate and allowed to form a single-layer film, each of the above fatty acids was added so that the final concentration was […]. The same amount of DMSO was added as a control. The medium was as described above. After addition, the cells were cultured at 37° C. in the presence of 5% CO2 for 3 days. After culture, the cells were collected with 1 mM EDTA.2Na/PBS(−) (pH 7.2), and stained with rabbit anti-GP2 antibody (produced by IMGENEX) and Alexa 488-labeled anti-rabbit antibody (produced by Molecular probes). The stained cells were analyzed by FACS (produced by BECKMAN COULTER), and GP2 expression levels were quantified."}, "Caco-2 cells [2]": {"tested_on": "Caco-2 cells", "experiment": "M-cell differentiation induction test, morphological analysis by electron microscope", "type": "cell-based, human", "conditions": "Caco-2 in Transwell insert, 100 μM applied from the apical side, 3 days", "protocol": "as §1\nAfter the Caco-2 cells were seeded at 2×10^5 cells in a Transwell insert ([…] Transwell, produced by Corning) and allowed to form a single-layer film, 10-hydroxydecanoic acid (final concentration: […]) was applied from the apical side of the single-layer film, and the cells were cultured at 37° C. in the presence of 5% CO2 for 3 days."}, "cynomolgus monkeys": {"tested_on": "cynomolgus monkeys", "design": "species or system Macaca fascicularis", "conditions": "cynomolgus monkey, in vivo, po"}}, "data": [{"smiles": "CCCCCCCC(O)CC(=O)O", "note": "(racemic) [(+/−)-3-hydroxydecanoic acid]", "values": [{"measurement": "expression of GP2 (FACS)", "setting": "Caco-2 cells [1]", "result": "induced the expression of GP2"}]}, {"smiles": "O=C(O)/C=C/CCCCCCCO", "note": "[10-hydroxy-2-(E)-decenoic acid, reference compound]", "values": [{"measurement": "expression of GP2 (FACS)", "setting": "Caco-2 cells [1]", "result": "did not induce the expression of GP2"}]}, {"smiles": "O=C(O)CCCCCCCCCO", "note": "[10-hydroxydecanoic acid]", "values": [{"measurement": "cell morphology (microvilli, M cell-like cells)", "setting": "Caco-2 cells [2]", "result": "cells with short microvilli were observed"}, {"measurement": "intensity of induction of GP2 expression compared with (+/−)-3-hydroxydecanoic acid", "setting": "Caco-2 cells [1]", "result": "induced more intensely the expression of GP2"}, {"measurement": "expression of GP2 (FACS)", "setting": "Caco-2 cells [1]", "result": "induced the expression of GP2"}, {"measurement": "anti-Fetuin IgA antibody titer in the feces", "setting": "cynomolgus monkeys", "result": "increases"}, {"measurement": "anti-influenza virus IgA antibody titer in the feces", "setting": "cynomolgus monkeys", "result": "increases"}, {"measurement": "anti-poliovirus IgA antibody titer in the feces", "setting": "cynomolgus monkeys", "result": "increases"}]}, {"smiles": "O=C(O)CCCCCCC[C@@H](O)CO", "note": "[(9R)-9,10-dihydroxydecanoic acid, reference compound]", "values": [{"measurement": "expression of GP2 (FACS)", "setting": "Caco-2 cells [1]", "result": "did not induce the expression of GP2"}]}]}
